Test results: patent US6624182B1, “Hydroxyphenylvinylthiazoles” (Ciba Specialty Chemicals Corporation, priority 1999, dated 2003)

Tests used:
Assay in all cases: Determination of the minimum inhibitory concentration (MIC value) in microtitre plates
[1] = test system: C. albicans; format: cell-based, Candida albicans ATCC 10231; settings: optical density at 620 nm, 48 hours at 37° C., MIC = ≦20% growth; tested at 100; 10 and 1 ppm (approximate values); (2), (3), (4) at 120; 60; 30; 15; 7.5; 3.75 ppm
Description: (§1) Determination of the Minimum Inhibitory Concentration (MIC Value) in Microtitre Plates Nutrient Medium Casein/soybean flour/peptone bouillon for the preparation of preliminary cultures of the test bacteria and yeast. Mycological slant agar for the preliminary culture of moulds Examples of Test Microbes: Yeast: Candida albicans ATCC 10231 Procedure: The test substances are pre-dissolved in dimethyl sulfoxide (DMSO) and tested in a series of dilutions of 1:2. Bacteria and yeast are cultured overnight in CASO bouillon; the mould is cultured on myco-logical slant agar and sponged off with 10 ml of 0.85% sodium chloride solution (+0.1% Triton X-100). All the test microbes are adjusted to a germ count of 1−5×10^6 KBE/ml using 0.85% sodium chloride solution. The test substances are pre-pipetted into microtitre plates in an amount of 8 μl per well. Pre-diluted microbe suspensions are diluted 1:100 in CASO bouillon (bacteria and yeast) or Sabouraud 2% glucose bouillon (mould) and added to the test substances in an amount of 192 μl per well. The test batches are incubated for 48 hours at 37° C. (bacteria and yeast) or for 5 days at 28° C. (mould). After incubation, the growth is determined by means of the clouding of the test batches (optical density) at 620 nm in a microplate reader. The concentration of substance at which (compared with the growth control) a marked inhibition of growth (≦20% growth) of the test microbes can be observed is given as the minimum inhibitory concentration (MIC value). One microtitre plate is used per test microbe and substance concentration. All substances are tested in duplicate.

[2] = test system: P. aeruginosa; format: cell-based, Pseudomonas aeruginosa CIP A-22; settings: optical density at 620 nm, 48 hours at 37° C., MIC = ≦20% growth; tested at 100; 10 and 1 ppm (approximate values); (2), (3), (4) at 120; 60; 30; 15; 7.5; 3.75 ppm
Description: as §1, with “Bacteria: Pseudomonas aeruginosa CIP A-22” for “Yeast: Candida albicans ATCC 10231”

[3] = test system: E. coli; format: cell-based, Escherichia coli NCTC 8196; settings: optical density at 620 nm, 48 hours at 37° C., MIC = ≦20% growth; tested at 100; 10 and 1 ppm (approximate values); (2), (3), (4) at 120; 60; 30; 15; 7.5; 3.75 ppm
Description: as §1, with “Bacteria: Escherichia coli NCTC 8196” for “Yeast: Candida albicans ATCC 10231”

[4] = test system: S. aureus; format: cell-based; settings: optical density at 620 nm, 48 hours at 37° C., MIC = ≦20% growth; tested at 100; 10 and 1 ppm (approximate values); (2), (3), (4) at 120; 60; 30; 15; 7.5; 3.75 ppm
Source text: as §1, with “Bacteria: Staphylococcus hominis DMS 20328” for “Yeast: Candida albicans ATCC 10231”

[5] = test system: A. niger; format: cell-based, Aspergillus niger ATCC 6275; settings: optical density at 620 nm, 5 days at 28° C., MIC = ≦20% growth; tested at 100; 10 and 1 ppm (approximate values); (2), (3), (4) at 120; 60; 30; 15; 7.5; 3.75 ppm
Description: as §1, with “Mould: Aspergillus niger” for “Yeast: Candida albicans”, “6275” for “10231”

MIC values in ppm C. albicans [1] [ppm]	MIC values in ppm P. aeruginosa [2] [ppm]	MIC values in ppm E. coli [3] [ppm]	MIC values in ppm S. aureus [4] [ppm]	MIC values in ppm A. niger [5] [ppm]	Compound
>100	>100	>100	>100	>100	CCOc1cc(/C=C/c2nc(C(C)(C)C)cs2)ccc1O [Compound of formula (19)]
>100	>100	>100	>100	>100	COc1cc(/C=C/c2nc(C(C)(C)C)cs2)ccc1O [Compound of formula (20)]
>100	>100	>100	>100	>100	COc1ccc(/C=C/c2nc(C(C)(C)C)cs2)c(O)c1 [Compound of formula (21)]
>100	>100	>100	>100	>100	COc1cc(/C=C/c2nc(C(C)(C)C)cs2)cc(O)c1OC [Compound of formula (22)]
>100	>100	>100	>100	>100	Cc1cc(/C=C/c2nc(C(C)(C)C)cs2)cc(C)c1O [Compound of formula (23)]
>100	>100	>100	>100	>100	Cc1cccc(/C=C/c2nc(C(C)(C)C)cs2)c1O [Compound of formula (24)]
>100	>100	>100	>100	>100	CC(C)(C)c1csc(/C=C/c2ccc(OCc3ccccc3)cc2O)n1 [Compound of formula (25)]
>100	>100	>100	>100	>100	COc1cc(O)ccc1/C=C/c1nc(C(C)(C)C)cs1 [Compound of formula (26)]
>100	>100	>100	>100	>100	Oc1ccc(/C=C/c2nc(-c3ccc(N4CCCC4)cc3)cs2)cc1 [Compound of formula (27)]
>100	>100	>100	>100	>100	Oc1cccc(/C=C/c2nc(-c3ccc(N4CCCC4)cc3)cs2)c1 [Compound of formula (28)]
>100	>100	>100	>100	>100	COc1ccc(/C=C/c2nc(-c3ccc(N4CCCC4)cc3)cs2)cc1O [Compound of formula (29)]
>100	>100	>100	>100	>100	CCOc1cc(/C=C/c2nc(-c3ccc(N4CCCC4)cc3)cs2)ccc1O [Compound of formula (30)]
>100	>100	>100	>100	>100	COc1cc(/C=C/c2nc(-c3ccc(N4CCCC4)cc3)cs2)ccc1O [Compound of formula (31)]
>100	>100	>100	>100	>100	COc1ccc(/C=C/c2nc(-c3ccc(N4CCCC4)cc3)cs2)c(O)c1 [Compound of formula (32)]
